A short description of series [1]: Solubility characteristics of COPs.
Method: (§1) Peptides were resuspended either in water at 2 mg/ml or at 10 to 20 mg per ml in DMSO as indicated and frozen in aliquots.
The conditions of series [2]: pH 7.
Method: as §1
The subject of series [3] is Amb a 1 specific IgE in serum of subjects allergic to ragweed pollen. Put plainly: Competition ELISA for IgE binding on nAmb a 1 coated plates. On the set-up: species or system human. On the procedure: Recombinant Amb a 1 at 0.5 μg/ml (purified nAmb a 1 obtained from Protein Labs, San Diego) was coated overnight on 96-well Nunc Maxisorp® immunoplates (Life Technologies, Basel, Switzerland). After blocking with 1% BSA, either ten-fold, twenty-fold, thirty-fold or forty-fold dilutions of patient serum were added depending on specific IgE content. […] The sera of three allergic patients were selected for high IgE level and clear signal over background and used to test for competition with the peptides. Serial dilutions of each set of COPs, namely Set A; Set B and Set C, at indicted concentrations were pre-incubated with the three selected sera overnight at 4° C. Sera were then incubated on nAmb a 1 coated 96-well plates and residual IgE binding was determined as described above. nAmb a 1 dilutions were used as control for inhibition, whereas BSA was used as control for possible non-specific inhibition.
On the technique in general: An ELISA detects its analyte on a solid surface through an enzyme-linked reagent.

Series [4] has as its system human basophils loaded with serum from a patient allergic to ragweed pollen. Description: Human basophil degranulation test (Basotest). Type of series: cell-based. As to the method:
BasotestR (ORPEGEN Pharma Heidelberg, Germany) was used for the quantitative determination of in vitro basophile degranulation. Heparinized blood (100 μl) from a non-allergic donor (ACT) was first incubated with serum (25 μl) from a patient allergic to ragweed pollen (FB) for 2 hours. The mix was further stimulated with buffer (reagent B) for 10 min at 37° C., and then with or without chemotactic peptide formylmethionylleucylphenylalanine (fMLP) as positive and negative controls respectively. Aliquots of blood were incubated in parallel with 100 μl allergen solution diluted in a saline solution for 20 min at 37° C. A dose response curve was performed with 250-12.5-0.625-0.031 nano-molar nAmb a 1 (added concentration) as well as starting 10 fold higher with AllerR mixed Sets (AllerR1-R6 and AllerR7-11). The activation process was stopped by incubating the blood samples at 4° C. for 5 min. The samples were then incubated for 20 min at +4° C.) (dark condition with 20 μl of phycoerythrin (PE)-conjugated anti-IgE and fluorescein isothyocyanate (FITC)-conjugated anti-gp53 (CD63). […] Cells were washed twice with PBS solution and resuspended in 200 μl of PBS solution and analyzed within 2 h by flow cytometry (FASC-LSRII-Becton Dickinson). The basophile population was gated on the PE anti-IgE positive cells and the expression of gp53 (CD63) was analyzed on this population. […]

For series [5], the system named is Rat Basophilic Leukemia cells (RBL-30/25) expressing human IgE receptor, pre-loaded with sera from allergic patients. Description: RBL cell degranulation (beta-hexosaminidase release). The class given is cell-based. Conditions: sera from panel of allergic patients (21 sera); FIG. 3. On the procedure:
Alternatively, degranulation was monitored using Rat Basophilic Leukemia cells (RBL) expressing parts of the human IgE receptor pre-loaded with sera from allergic patients (Vogel et al, Allergy 60: 1021-1028 (2005)). Essentially, RBL-30/25 cells were pre-incubated overnight with sera from patients from the region around Lyon (France, Biomnis) as well as from US (Plasma Lab International). To increase and stabilize the secretion of beta-hexosaminidase, 50% D2O was added to the Tyrode's buffer used for the assay. beta-hexosaminidase release after IgE crosslinking with an anti-IgE antibody was set to 100% release reflecting the ability of the cells to release beta-hexosaminidase upon IgE crosslinking. Amb a 1-specific release is given as percent of IgE mediated release.

Series [6] has as its system Balb/c mice sensitized with nAmb a 1. Description: Anaphylactic response in sensitized mice (sensitization and challenge). Type of series: in vivo. As to the method: Balb/c mice were sensitized by repeated injections of low doses (1 ug) of the allergen Amb a 1 by 5 subcutaneous injections at 14 days interval. […] Anaphylactic symptoms were scored using a scale of 6 grades (0, no symptoms to 5, death) adapted from Sade et al. J Investig Allergol Clin Immunol; 17(6): 379-385 (2007). Rectal temperature was monitored at 15 minutes intervals for 60 minutes after challenge using a digital thermometer. Citrate buffer was used as control for sensitization and challenge leading to two additional mice groups.

“Also recorded” adds a separate entry of the source. No end group written: not given here.

“TSGAYNIIDGCWRGKADWAENRKALADCAQGFGKGTVGGKDGDIYTVTSELDDDVANPK (cysteines drawn unpaired) [AllerR1]”: in series [1] (water), the solubility (commonly how much of the substance goes into solution per volume) was 2 mg/mL.
The molecule “VDAKLGTTRLTVSNSLFTQHQFVLLFGAGDENIEDRGMLATVAFNTFTDN [AllerR4.2]” had a solubility in series [1] (5 mM HCl, 0.1 M NaOH and 0.1 M citrate buffer pH 5.6, pH 5.6) of 1 mg/mL. The “Solubility (in words)” value in series [1] (solvent as stated in the value) is “not soluble in H2O”.
In series [1] (water), “TIDGRGAKVEIINAGFTLNGVKNVIIHNINMHDVKVNPGGLIK [AllerR3]” registered a solubility of 2 mg/mL.
“FVLLFGAGDENIEDRGMLATVAFNTFTDNVDQRMPRCRHGFFQVVNNNYDKWGSYAIGGSASPTILSQGNRFCAPDERS [AllerR10]”: in series [2], the “Conc. (solubility)” value is 2 mg/mL.
As to “AGSDGDAISISGSSQIWIDHCSLSKSVDGLVDAKLGTTRLTVSNSLFTQHQFVLLFGAGDENIEDRGMLATVAFNTFTDN [AllerR4]”, the “IgE binding (in words)” value in series [3] (as seen in competition ELISA) and in series [4] (as seen in degranulation assays) was “did not bind IgE” throughout.
On to “DVANPKEGTLRFGAAQNRPLWIIFERDMVIRLDKEMVVNSDKTIDGRGAKVE [AllerR2]”, for which the concentration in solution in series [1] (water) (solubility) was 2 mg/mL.

B1: nAmb a 1: ragweed pollen major allergen purified from ragweed pollen by Protein Labs; positive control (protein)
chain: AEDLQEILPVNETRRLTTSGAYNIIDGCWRGKADWAENRKALADCAQGFGKGTVGGKDGDIYTVTSELDDDVANPKEGTLRFGAAQNRPLWIIFERDMVIRLDKEMVVNSDKTIDGRGAKVEIINAGFTLNGVKNVIIHNINMHDVKVNPGGLIKSNDGPAAPRAGSDGDAISISGSSQIWIDHCSLSKSVDGLVDAKLGTTRLTVSNSLFTQHQFVLLFGAGDENIEDRGMLATVAFNTFTDNVDQRMPRCRHGFFQVVNNNYDKWGSYAIGGSASPTILSQGNRFCAPDERSKKNVLGRHGEAAAESMKWNWRTNKDVLENGAIFVASGVDPVLTPEQSAGMIPAEPGESALSLTSSAGVLSCQPGAPC
As to B1, the “Concentration range showing competition” value in series [3] (panel of sera from 22 patients allergic to ragweed, data not shown) was 10^−11 to 10^−8 molar. For the same molecule, the “Concentrations at which competition with serum IgE occurs” value in series [3] (sera from three allergic patients (17794, 18342, FB), FIG. 1) is 10^−11 to 10^−8 M. The “Basophil degranulation (CD63 expression), in words” value in series [4] (human basophils loaded with serum FB, FIG. 2) was “induce human basophil degranulation”. For the same molecule, the “Degranulation of RBL cells, in words” value in series [5] is listed as “triggered degranulation to various extents; also recorded: triggered degranulation to various extend”. For the same molecule, the “Anaphylactic symptom scores (scale 0 to 5)” value in series [6] (challenge 7 days after last sensitizing injection, Amb a 1 30 μg/ml or AllerR 34 μg/ml, observed one hour, FIG. 5 panel A) is reported as “significant increase in symptom scores already after 15 min”. Besides, the “Rectal (body) temperature after challenge” value in series [6] (measured every 15 min, FIG. 5 panel B) was “marked decrease in rectal temperature”. Moreover, the “IgE mean levels, increase over pre-immune following sensitization” value in series [6] (mice sensitized by repeated s.c. injections of nAmb a 1, FIG. 5 panel C) is “about 500 fold”.

The record behind these values is patent US9005627B2, “Contiguous overlapping peptides for treatment of ragweed pollen allergy” (Anergis S.A., priority 2011, dated 2015).
